Consider 30 compounds from patent US8691775B2, “Use of drugs that activate P2Y receptors to enhance synaptogenesis” (Back Bay Scientific, LLC, priority 2010, dated 2014).

The test system of data set [1] is brain dendritic spines. In words: Brain dendritic spines in laboratory animals injected intraperitoneally with test compound. Format: in vivo. The settings on record: intraperitoneal injection after 6 weeks of diet. An excerpt: The laboratory animals are fed a food composition with or without a synthetic diet enriched with uridine, DHA and choline for 6 weeks, and are then intraperitoneally injected with a composition comprising the test compound.

Data set [2] has as its system PSD-95 protein in PC12 cells. Put plainly: Level of PSD-95 in PC12 cells incubated with test compound. The settings on record: incubation 2 or 4 days. The format is cell-based. An excerpt: Postsynaptic protein PSD-95 is a member of the membrane-associated guanylate kinase (MAGUK) family. The protein is almost exclusively located in the postsynaptic density of neurons and is involved in anchoring synaptic proteins. The inventor hypothesized that active agents that increase the level of the PSD-95 protein in cultured cells may be screened for their ability to activate P2Y receptors in animal models.
PC12 cells, a cell line ultimately derived from neural cells, are maintained in Minimal Essential Medium (MEM; Invitrogen, Carlsbad, Calif.) supplemented with 10% fetal bovine serum (FBS) at 37° C. Experimental incubations are for 2 or 4 days in medium with or without test compounds.
The activity of each test compound is assessed by determining the effect of each test compound on the level of PSD-95 in the cells.

The conditions of data set [3]: rats; cited from earlier work.

Regarding `CCCCCCSc1nc(N)c2ncn([C@@H]3O[C@H](COP(=O)(O)O)[C@@H](O)[C@H]3O)c2n1` [2-(hexylthio) (HT)-AMP], the “level of brain dendritic spines in laboratory animals” value (“level of brain dendritic spines” below) in data set [1] is listed as “effective”. In addition, the “level of the PSD-95 protein in tissue culture” value (“level of the PSD-95 protein” below) in data set [2] is “effective”.

In the case of `CSc1nc(N)c2ncn([C@@H]3O[C@H](COP(=O)(O)OP(=O)(O)OP(=O)(O)O)[C@@H](O)[C@H]3O)c2n1` [2-MeSATP], in data set [1], the “level of brain dendritic spines” value is listed as “effective”. For the same compound, the “level of the PSD-95 protein” value in data set [2] is recorded as “effective”. For the compound `CSc1nc(N)c2ncn([C@@H]3O[C@H](COP(=O)([O-])OP(=O)([O-])[O-])[C@@H](O)[C@H]3O)c2n1.[Na+].[Na+].[Na+]` [2-Methylthio-ADP trisodium salt], the “level of brain dendritic spines” value in data set [1] was “effective”. For the same compound, the “level of the PSD-95 protein” value in data set [2] is “effective”. For the compound `O=c1ccn([C@@H]2O[C@H](COP(=O)([O-])OP(=O)([O-])OP(=O)([O-])[O-])[C@@H](O)[C@H]2O)c(=S)[nH]1.[Na+].[Na+].[Na+].[Na+]` [2-ThioUTP tetrasodium salt], the “level of brain dendritic spines” value in data set [1] is “effective”. Moreover, the “level of the PSD-95 protein” value in data set [2] is “effective”.

As for `O=c1ccn([C@@H]2O[C@H](COP(=O)(O)OP(=O)(O)OP(=O)(O)O)[C@@H](O)[C@H]2O)c(=S)[nH]1` [2-thio-UTP], the “level of brain dendritic spines” value in data set [1] is on record as “effective”. For the same compound, in data set [2], the “level of the PSD-95 protein” value is listed as “effective”.

As for `N[C@@H]1[C@H](O)[C@@H](COP(=O)(O)OP(=O)(O)OP(=O)(O)O)O[C@H]1n1ccc(=O)[nH]c1=O` [2′-deoxy-2′-amino-UTP], the “level of brain dendritic spines” value in data set [1] is “effective”. The “level of the PSD-95 protein” value in data set [2] was “effective”. As for `Nc1ncnc2c1ncn2[C@@H]1O[C@H](COP(=O)(O)OP(=O)(O)O)[C@@H](O)[C@H]1O` [ADP], in data set [1], the “level of brain dendritic spines” value was “effective”. The “level of the PSD-95 protein” value in data set [2] is “effective”. Take `Nc1ncnc2c1ncn2[C@@H]1O[C@H](COP(=O)(O)OP(=O)([O-])OP(=O)([O-])O)[C@@H](O)[C@H]1O.[Na+].[Na+]` [ATP disodium salt]: the “level of the PSD-95 protein” value in data set [2] is “effective”. In the case of `Nc1ncnc2c1ncn2[C@@H]1O[C@H](COP(=O)(O)OP(=O)(O)OP(=O)(O)OP(=O)(O)OC[C@H]2O[C@@H](n3cnc4c(N)ncnc43)[C@H](O)[C@@H]2O)[C@@H](O)[C@H]1O` [Ap4A], in data set [1], the “level of brain dendritic spines” value is given as “effective”. Besides, the “level of the PSD-95 protein” value in data set [2] is given as “effective”. Take `Nc1ncnc2c1ncn2[C@@H]1O[C@H](COP(=O)(O)OP(=O)(O)OP(=O)(O)OP(=O)(O)OC[C@H]2O[C@@H](n3ccc(=O)[nH]c3=O)[C@H](O)[C@@H]2O)[C@@H](O)[C@H]1O` [Ap4U]: in data set [1], the “level of brain dendritic spines” value is “effective”. Besides, the “level of the PSD-95 protein” value in data set [2] is on record as “effective”.

As to `Nc1ccn([C@@H]2O[C@H](COP(=O)(O)OP(=O)(O)OP(=O)(O)O)[C@@H](O)[C@H]2O)c(=O)n1` [CTP, cytidine-triphosphate], in data set [1], the “level of brain dendritic spines” value is on record as “effective”. For the same compound, the “level of the PSD-95 protein” value in data set [2] is reported as “effective”.

Turning to `Nc1nc2c(ncn2[C@@H]2O[C@H](COP(=O)(O)OP(=O)(O)OP(=O)(O)O)[C@@H](O)[C@H]2O)c(=O)[nH]1` [GTP], the “level of brain dendritic spines” value in data set [1] was “effective”. Besides, the “level of the PSD-95 protein” value in data set [2] is “effective”.

Consider `O=c1ccn([C@@H]2O[C@H](COP(=O)(O)OP(=O)(O)OP(=O)(O)OP(=O)(O)OC[C@H]3O[C@@H](n4ccc(=O)[nH]c4=O)[C@H](O)[C@@H]3O)[C@@H](O)[C@H]2O)c(=O)[nH]1` [INS365], for which, in data set [1], the “level of brain dendritic spines” value is “effective”. The “level of the PSD-95 protein” value in data set [2] is “effective”. Turning to `O=c1[nH]cnc2c1ncn2[C@@H]1O[C@H](COP(=O)(O)OP(=O)(O)OP(=O)(O)O)[C@@H](O)[C@H]1O` [ITP], the “level of brain dendritic spines” value in data set [1] is listed as “effective”. Also, in data set [2], the “level of the PSD-95 protein” value is “effective”.

For `CSc1nc(N)c2ncn([C@H]3[C@H](O)[C@H](O)[C@]4(COP(=O)(O)OP(=O)(O)O)C[C@H]34)c2n1` [MRS 2365], the “level of brain dendritic spines” value in data set [1] is listed as “effective”. Further, the “level of the PSD-95 protein” value in data set [2] was “effective”.

Consider `O=c1ccn([C@@H]2O[C@H](COP(=O)([O-])OP(=O)([O-])O[C@H]3O[C@H](CO)[C@@H](O)[C@H](O)[C@H]3O)[C@@H](O)[C@H]2O)c(=S)[nH]1.[Na+].[Na+]` [MRS 2690], for which the “level of brain dendritic spines” value in data set [1] was “effective”. Also, in data set [2], the “level of the PSD-95 protein” value is “effective”. Regarding `N[C@@H]1[C@H](O)[C@@H](COP(=O)(O)OP(=O)(O)OP(=O)(O)O)O[C@H]1n1ccc(=O)[nH]c1=S` [MRS 2698], the “level of brain dendritic spines” value in data set [1] was “effective”. Besides, the “level of the PSD-95 protein” value in data set [2] is recorded as “effective”. As for `O=C(Cn1c(=O)ccn(C2OC(COP(=O)(O)OP(=O)(O)O)C(O)C2O)c1=O)c1ccccc1` (stereo not shown) [PSB 0474], the “level of brain dendritic spines” value in data set [1] is “effective”. Also, the “level of the PSD-95 protein” value in data set [2] was “effective”.

For `O=c1ccn([C@@H]2O[C@H](COP(=O)(O)OP(=O)(O)O)[C@@H](O)[C@H]2O)c(=O)[nH]1` [UDP, uridine 5′-diphosphate], the “level of brain dendritic spines” value in data set [1] was “effective”. Besides, in data set [2], the “level of the PSD-95 protein” value is on record as “effective”. In the case of `O=c1ccn([C@@H]2O[C@H](COP(=O)(O)OP(O)(O)=S)[C@@H](O)[C@H]2O)c(=O)[nH]1` [UDPβS, Uridine β-thiodiphosphate], the “level of brain dendritic spines” value in data set [1] is “effective”. In addition, the “level of the PSD-95 protein” value in data set [2] is “effective”. `O=c1ccn([C@@H]2O[C@H](COP(=O)(O)OP(=O)(O)OP(=O)(O)O)[C@@H](O)[C@H]2O)c(=O)[nH]1` [UTP, uridine 5′-triphosphate]: the “level of brain dendritic spines” value in data set [1] is listed as “effective”. Also, in data set [2], the “level of the PSD-95 protein” value is reported as “effective”. For the compound `O=c1ccn(C2OC(COP(=O)([O-])OP(=O)([O-])OP(=O)([O-])S)C(O)C2O)c(=O)[nH]1.[Na+].[Na+].[Na+]` (stereo not shown) [UTPγS trisodium salt], the “level of brain dendritic spines” value in data set [1] is on record as “effective”. In addition, the “level of the PSD-95 protein” value in data set [2] is “effective”. For `O=c1ccn([C@@H]2O[C@H](COP(=O)(O)OP(=O)(O)OP(O)(O)=S)[C@@H](O)[C@H]2O)c(=O)[nH]1` [UTPγS, uridine γ-thiophosphate], in data set [1], the “level of brain dendritic spines” value is “effective”. In data set [2], the “level of the PSD-95 protein” value is reported as “effective”. With `Nc1ccn([C@H]2C[C@H](O)[C@@H](COP(=O)(O)OP(=O)(O)OP(=O)(O)OP(=O)(O)OC[C@H]3O[C@@H](n4ccc(=O)[nH]c4=O)[C@H](O)[C@@H]3O)O2)c(=O)n1` [denufosol], the “level of brain dendritic spines” value in data set [1] was “effective”. The “level of the PSD-95 protein” value in data set [2] is “effective”. As for `O=c1ccn([C@@H]2O[C@H](CO)[C@@H](O)[C@H]2O)c(=O)[nH]1` [uridine], in data set [3], the “uridine entering the liver via the portal vein metabolized in a single pass” value is “more than 90%”. As to `Nc1ncnc2c1ncn2[C@@H]1O[C@H](COP(=O)(O)CP(=O)([O-])OP(=O)([O-])[O-])[C@@H](O)[C@H]1O.[Na+].[Na+].[Na+]` [α,β-Methyleneadenosine 5′-triphosphate trisodium salt], in data set [1], the “level of brain dendritic spines” value was “effective”. In addition, the “level of the PSD-95 protein” value in data set [2] was “effective”. As for `Nc1ncnc2c1ncn2[C@@H]1O[C@H](COP(=O)(O)CP(=O)(O)OP(=O)(O)O)[C@@H](O)[C@H]1O` [α,β-methylene ATP], in data set [1], the “level of brain dendritic spines” value is “effective”. In addition, the “level of the PSD-95 protein” value in data set [2] is “effective”. Consider BzATP triethylammonium salt, for which the “level of brain dendritic spines” value in data set [1] is given as “effective”. For the same compound, in data set [2], the “level of the PSD-95 protein” value was “effective”. On to diadenosine pentaphosphate, for which the “level of brain dendritic spines” value in data set [1] was “effective”. In addition, the “level of the PSD-95 protein” value in data set [2] is given as “effective”. diuridine triphosphate: the “level of brain dendritic spines” value in data set [1] is recorded as “effective”. In addition, in data set [2], the “level of the PSD-95 protein” value is “effective”.
